Laboratory results published in patent US11820766B2, “Monoacylglycerol lipase modulators” (Janssen Pharmaceutica NV, priority 2018, dated 2023).
pIC50: −log10 of the molar value.

Target: T1, human MGL from HeLa cells (Homo sapiens, UniProt Q99685)
T1 construct: combining endogenously expressed MGL from HeLa cells with test compounds; endogenous in cells; host or cells: HeLa cells / cell homogenates
T1 sequence (Q99685 1-303): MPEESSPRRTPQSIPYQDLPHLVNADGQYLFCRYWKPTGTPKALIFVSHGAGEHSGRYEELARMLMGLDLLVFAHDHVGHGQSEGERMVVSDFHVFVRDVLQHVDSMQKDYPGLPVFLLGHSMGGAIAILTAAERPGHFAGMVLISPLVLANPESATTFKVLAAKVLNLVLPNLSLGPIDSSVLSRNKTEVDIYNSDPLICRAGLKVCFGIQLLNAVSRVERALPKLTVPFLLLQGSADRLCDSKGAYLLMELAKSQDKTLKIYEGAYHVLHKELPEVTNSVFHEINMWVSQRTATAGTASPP
Assay: In vitro MGL activity assay: [glycerol-1,3-3H]-oleyl glycerol cleavage by MGL from HeLa cells
Assay type: biochemical
Conditions: 300 nM [Glycerol-1,3-3H]-oleyl glycerol, one hour
Source text: MGL is the predominant hydrolase in HeLa cells/cell homogenates.

Compound | pIC50
C[C@H]1c2nn(C)c(-c3cc(F)c(F)c(F)c3)c2CCN1C(=O)c1ccc2cncnc2c1 [Example 480, [(7S)-2,7-Dimethyl-3-(3,4,5-trifluorophenyl)-5,7-dihydro-4H-pyrazolo[3,4-c]pyridin-6-yl]-quinazolin-7-yl-methanone] | 6.68
C[C@H]1c2nn(C)c(-c3cc(F)c(F)c(F)c3)c2CCN1C(=O)c1nccc2ncncc12 [Example 484, [(7S)-2,7-Dimethyl-3-(3,4,5-trifluorophenyl)-5,7-dihydro-4H-pyrazolo[3,4-c]pyridin-6-yl]-pyrido[4,3-d]pyrimidin-5-yl-methanone] | 7.21
C[C@H]1c2nn(C)c(-c3cc(F)c(F)c(F)c3)c2CCN1C(=O)c1ccnc2cccnc12 [Example 485, [(7S)-2,7-Dimethyl-3-(3,4,5-trifluorophenyl)-5,7-dihydro-4H-pyrazolo[3,4-c]pyridin-6-yl]-(1,5-naphthyridin-4-yl)methanone] | 7.48
Cc1ccc2c(C(=O)N3CCc4c(nn(C)c4-c4cc(F)c(F)c(F)c4)[C@@H]3C)nccc2n1 [Example 487, [(7S)-2,7-Dimethyl-3-(3,4,5-trifluorophenyl)-5,7-dihydro-4H-pyrazolo[3,4-c]pyridin-6-yl]-(2-methyl-1,6-naphthyridin-5-yl)methanone] | 7.45
C[C@H]1c2nn(C)c(-c3cc(F)c(F)c(F)c3)c2CCN1C(=O)c1cnc2ccncc2c1 [Example 488, [(7S)-2,7-Dimethyl-3-(3,4,5-trifluorophenyl)-5,7-dihydro-4H-pyrazolo[3,4-c]pyridin-6-yl]-(1,6-naphthyridin-3-yl)methanone] | 6.64
C[C@H]1c2nn(C)c(-c3cc(F)c(F)c(F)c3)c2CCN1C(=O)c1cncc2ncccc12 [Example 489] | 7.52
C[C@H]1c2nn(C)c(-c3cc(F)c(F)c(F)c3)c2CCN1C(=O)c1cnc2ncccc2c1 [Example 490, [(7S)-2,7-Dimethyl-3-(3,4,5-trifluorophenyl)-5,7-dihydro-4H-pyrazolo[3,4-c]pyridin-6-yl]-(1,8-naphthyridin-3-yl)methanone] | 6.65
C[C@H]1c2nn(C)c(-c3cc(F)c(F)c(F)c3)c2CCN1C(=O)c1ccnc2ncccc12 [Example 491, [(7S)-2,7-Dimethyl-3-(3,4,5-trifluorophenyl)-5,7-dihydro-4H-pyrazolo[3,4-c]pyridin-6-yl]-(1,8-naphthyridin-4-yl)methanone] | 6.85
Cc1ccccc1-c1c2c(nn1C)[C@H](C)N(C(=O)c1ccc3ncccc3c1)CC2 [Example 492, [(7S)-2,7-Dimethyl-3-(o-tolyl)-5,7-dihydro-4H-pyrazolo[3,4-c]pyridin-6-yl]-(6-quinolyl)methanone] | 6.66
C[C@H]1c2nn(C)c(-c3ccccc3C(F)(F)F)c2CCN1C(=O)c1ccc2ncccc2c1 [Example 493, [(7S)-2,7-Dimethyl-3-[2-(trifluoromethyl)phenyl]-5,7-dihydro-4H-pyrazolo[3,4-c]pyridin-6-yl]-(6-quinolyl)methanone] | 5.63
C[C@H]1c2nn(C)c(-c3ccc(C(F)(F)F)cc3)c2CCN1C(=O)c1ccc2ncccc2c1 [Example 494, [(7S)-2,7-Dimethyl-3-[4-(trifluoromethyl)phenyl]-5,7-dihydro-4H-pyrazolo[3,4-c]pyridin-6-yl]-(6-quinolyl)methanone] | 7.26
COc1cccc(-c2c3c(nn2C)[C@H](C)N(C(=O)c2ccc4ncccc4c2)CC3)c1 [Example 495, [(7S)-3-(3-Methoxyphenyl)-2,7-dimethyl-5,7-dihydro-4H-pyrazolo[3,4-c]pyridin-6-yl]-(6-quinolyl)methanone] | 7.33
COc1ccccc1-c1c2c(nn1C)[C@H](C)N(C(=O)c1ccc3ncccc3c1)CC2 [Example 496, [(7S)-3-(2-Methoxyphenyl)-2,7-dimethyl-5,7-dihydro-4H-pyrazolo[3,4-c]pyridin-6-yl]-(6-quinolyl)methanone] | 7.26
CCOc1ccc(-c2c3c(nn2C)[C@H](C)N(C(=O)c2ccc4ncccc4c2)CC3)cc1 [Example 497, [(7S)-3-(4-Ethoxyphenyl)-2,7-dimethyl-5,7-dihydro-4H-pyrazolo[3,4-c]pyridin-6-yl]-(6-quinolyl)methanone] | 6.50
CC(C)Oc1cccc(-c2c3c(nn2C)[C@H](C)N(C(=O)c2ccc4ncccc4c2)CC3)c1 [Example 498, [(7S)-3-(3-Isopropoxyphenyl)-2,7-dimethyl-5,7-dihydro-4H-pyrazolo[3,4-c]pyridin-6-yl]-(6-quinolyl)methanone] | 6.44
C[C@H]1c2nn(C)c(-c3cccc(OC(F)F)c3)c2CCN1C(=O)c1ccc2ncccc2c1 [Example 499, [(7S)-3-[3-(Difluoromethoxy)phenyl]-2,7-dimethyl-5,7-dihydro-4H-pyrazolo[3,4-c]pyridin-6-yl]-(6-quinolyl)methanone] | 7.35
C[C@H]1c2nn(C)c(-c3ccc(OC(F)(F)F)cc3)c2CCN1C(=O)c1ccc2ncccc2c1 [Example 500, [(7S)-2,7-Dimethyl-3-[4-(trifluoromethoxy)phenyl]-5,7-dihydro-4H-pyrazolo[3,4-c]pyridin-6-yl]-(6-quinolyl)methanone] | 7.12
C[C@H]1c2nn(C)c(-c3cccc(OC(F)(F)F)c3)c2CCN1C(=O)c1ccc2ncccc2c1 [Example 501, [(7S)-2,7-Dimethyl-3-[3-(trifluoromethoxy)phenyl]-5,7-dihydro-4H-pyrazolo[3,4-c]pyridin-6-yl]-(6-quinolyl)methanone] | 7.23
C[C@H]1c2nn(C)c(-c3ccc(F)cc3F)c2CCN1C(=O)c1ccc2ncccc2c1 [Example 502, [(7S)-3-(2,4-Difluorophenyl)-2,7-dimethyl-5,7-dihydro-4H-pyrazolo[3,4-c]pyridin-6-yl]-(6-quinolyl)methanone] | 6.97
C[C@H]1c2nn(C)c(-c3ccc(F)cc3Cl)c2CCN1C(=O)c1ccc2ncccc2c1 [Example 506, [(7S)-3-(2-Chloro-4-fluoro-phenyl)-2,7-dimethyl-5,7-dihydro-4H-pyrazolo[3,4-c]pyridin-6-yl]-(6-quinolyl)methanone] | 6.46
COc1ccc(F)cc1-c1c2c(nn1C)[C@H](C)N(C(=O)c1ccc3ncccc3c1)CC2 [Example 508, [(7S)-3-(5-Fluoro-2-methoxy-phenyl)-2,7-dimethyl-5,7-dihydro-4H-pyrazolo[3,4-c]pyridin-6-yl]-(6-quinolyl)methanone] | 7.15
COc1ccc(-c2c3c(nn2C)[C@H](C)N(C(=O)c2ccc4ncccc4c2)CC3)cc1C [Example 512, [(7S)-3-(4-Methoxy-3-methyl-phenyl)-2,7-dimethyl-5,7-dihydro-4H-pyrazolo[3,4-c]pyridin-6-yl]-(6-quinolyl)methanone] | 6.73

Now those with a higher pIC50, led by results:

pIC50 | Compound
8.28 | C[C@H]1c2nn(C)c(-c3cc(F)c(F)c(F)c3)c2CCN1C(=O)c1ncnc2c(F)cccc12 [Example 481, [(7S)-2,7-Dimethyl-3-(3,4,5-trifluorophenyl)-5,7-dihydro-4H-pyrazolo[3,4-c]pyridin-6-yl]-(8-fluoroquinazolin-4-yl)methanone]
8.21 | C[C@H]1c2nn(C)c(-c3cc(F)c(F)c(F)c3)c2CCN1C(=O)c1ncnc2ccccc12 [Example 482, [(7S)-2,7-Dimethyl-3-(3,4,5-trifluorophenyl)-5,7-dihydro-4H-pyrazolo[3,4-c]pyridin-6-yl]-quinazolin-4-yl-methanone]
7.99 | [2H]c1cnc2cc(C(=O)N3CCc4c(nn(C)c4-c4cc(F)c(F)c(F)c4)[C@@H]3C)ccc2n1 [Example 483, (2-Deuterioquinoxalin-6-yl)-[(7S)-2,7-dimethyl-3-(3,4,5-trifluorophenyl)-5,7-dihydro-4H-pyrazolo[3,4-c]pyridin-6-yl]methanone]
7.86 | C[C@H]1c2nn(C)c(-c3cc(F)c(F)c(F)c3)c2CCN1C(=O)c1nccc2ncccc12 [Example 486]
7.66 | C[C@H]1c2nn(C)c(-c3cccc(F)c3F)c2CCN1C(=O)c1ccc2ncccc2c1 [Example 503, [(7S)-3-(2,3-Difluorophenyl)-2,7-dimethyl-5,7-dihydro-4H-pyrazolo[3,4-c]pyridin-6-yl]-(6-quinolyl)methanone]
7.60 | C[C@H]1c2nn(C)c(-c3ccc(Cl)c(F)c3)c2CCN1C(=O)c1ccc2ncccc2c1 [Example 504, [(7S)-3-(4-Chloro-3-fluoro-phenyl)-2,7-dimethyl-5,7-dihydro-4H-pyrazolo[3,4-c]pyridin-6-yl]-(6-quinolyl)methanone]
8.13 | C[C@H]1c2nn(C)c(-c3ccc(F)c(Cl)c3)c2CCN1C(=O)c1ccc2ncccc2c1 [Example 505, [(7S)-3-(3-Chloro-4-fluoro-phenyl)-2,7-dimethyl-5,7-dihydro-4H-pyrazolo[3,4-c]pyridin-6-yl]-(6-quinolyl)methanone]
7.82 | C[C@H]1c2nn(C)c(-c3ccc(Cl)c(Cl)c3)c2CCN1C(=O)c1ccc2ncccc2c1 [Example 507, [(7S)-3-(3,4-Dichlorophenyl)-2,7-dimethyl-5,7-dihydro-4H-pyrazolo[3,4-c]pyridin-6-yl]-(6-quinolyl)methanone]
8.18 | Cc1cc(F)cc(-c2c3c(nn2C)[C@H](C)N(C(=O)c2ccc4ncccc4c2)CC3)c1 [Example 511, [(7S)-3-(3-Fluoro-5-methyl-phenyl)-2,7-dimethyl-5,7-dihydro-4H-pyrazolo[3,4-c]pyridin-6-yl]-(6-quinolyl)methanone]
7.98 | COc1cc(Cl)cc(-c2c3c(nn2C)[C@H](C)N(C(=O)c2ccc4ncccc4c2)CC3)c1 [Example 513, [(7S)-3-(3-Chloro-5-methoxy-phenyl)-2,7-dimethyl-5,7-dihydro-4H-pyrazolo[3,4-c]pyridin-6-yl]-(6-quinolyl)methanone]
